Measured values reported in patent US6355799B1, “Substituted benzene compounds, process for their preparation, and herbicidal and defoliant compositions containing them” (ISK Americas Incorporated, priority 1997, dated 2002).

What was measured:
Type in all cases: in vivo
[1] = tested on: redroot pigweed (Amaranthus retroflexus, AMARE); assay: Pre-emerge test, greenhouse herbicide activity screening; details: pre-emerge, 14 days after application, rating scale 0-100
How it was run: (§1)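 Plants grown in 10 cm pots of sandy loam mix received acetone-dissolved compounds through a moving flat-fan nozzle. Doses ranged from 15 to 1000 g ai/ha. Pre-emerge pots were seeded one day earlier, post-emerge pots 8–21 days earlier. Fourteen days on, each pot was graded 0–100 for damage.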

[2] = tested on: barnyardgrass (Echinochloa crus-galli, ECHCG); assay: as above; details: pre-emerge, 14 days after application, rating scale 0-100
How it was run: (§2)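 Compounds in acetone were track-sprayed at 187 l/ha, 15–1000 g ai/ha, onto sandy loam pots. Pre-emerge seeds were sown one day before spraying, with surface watering afterwards. Post-emerge plants were at the 2–3 leaf stage and sprayed with 0.25% v/v non-ionic surfactant. Injury was rated 0–100 at 14 days.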

[3] = tested on: green foxtail (Setaria viridis, SETVI); assay: as above; details: pre-emerge, 14 days after application, rating scale 0-100
How it was run: as §2

[4] = tested on: ivyleaf morningglory (Ipomoea hederacea, IPOHE); assay: as above; details: pre-emerge, 14 days after application, rating scale 0-100
How it was run: as §2

[5] = tested on: johnsongrass (Sorghum halepense, SORHA); assay: as above; details: pre-emerge, 14 days after application, rating scale 0-100
How it was run: as §2

[6] = tested on: lambsquarters (Chenopodium album, CHEAL); assay: as above; details: pre-emerge, 14 days after application, rating scale 0-100
How it was run: as §2

[7] = tested on: large crabgrass (Digitaria sanguinalis, DIGSA); assay: as above; details: pre-emerge, 14 days after application, rating scale 0-100
How it was run: as §2

[8] = tested on: sicklepod (Cassia obtusifolia, CASOB); assay: as above; details: pre-emerge, 14 days after application, rating scale 0-100
How it was run: as §2

[9] = tested on: velvetleaf (Abutilon theophrasti, ABUTH); assay: as above; details: pre-emerge, 14 days after application, rating scale 0-100
How it was run: as §2

[10] = tested on: field corn (Zea mays L., var. Dekalb 535, CORN); assay: Pre-emerge test, crop safety; details: pre-emerge, 14 days after application, rating scale 0-100
How it was run: (§3)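 Visual ratings on a 0-100 scale (0 no damage, 100 all plants dead) were taken at 14 days after treatment. Rates of 15-1000 g ai/ha in acetone, 187 l/ha, were sprayed onto soil one day after planting (pre-emerge) or onto 2-3 leaf plants with 0.25% v/v surfactant (post-emerge).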

[11] = tested on: upland rice (Oryza sp., var. Tebonnet, RICE); assay: Pre-emerge test, crop safety; details: pre-emerge, 14 days after application, rating scale 0-100
How it was run: as §3

[12] = tested on: barnyardgrass (Echinochloa crus-galli, ECHCG); assay: Post-emerge test, greenhouse herbicide activity screening; details: post-emerge, 14 days after application, rating scale 0-100
How it was run: as §1

[13] = tested on: green foxtail (Setaria viridis, SETVI); assay: as above; details: post-emerge, 14 days after application, rating scale 0-100
How it was run: as §1

[14] = tested on: ivyleaf morningglory (Ipomoea hederacea, IPOHE); assay: as above; details: post-emerge, 14 days after application, rating scale 0-100
How it was run: as §1

[15] = tested on: johnsongrass (Sorghum halepense, SORHA); assay: as above; details: post-emerge, 14 days after application, rating scale 0-100
How it was run: as §1

[16] = tested on: lambsquarters (Chenopodium album, CHEAL); assay: as above; details: post-emerge, 14 days after application, rating scale 0-100
How it was run: as §1

[17] = tested on: large crabgrass (Digitaria sanguinalis, DIGSA); assay: as above; details: post-emerge, 14 days after application, rating scale 0-100
How it was run: as §1

[18] = tested on: redroot pigweed (Amaranthus retroflexus, AMARE); assay: as above; details: post-emerge, 14 days after application
How it was run: as §1

[19] = tested on: sicklepod (Cassia obtusifolia, CASOB); assay: as above; details: post-emerge, 14 days after application, rating scale 0-100
How it was run: as §1

[20] = tested on: velvetleaf (Abutilon theophrasti, ABUTH); assay: as above; details: post-emerge, 14 days after application, rating scale 0-100
How it was run: as §1

[21] = tested on: field corn (Zea mays L., var. Dekalb 535, CORN); assay: Post-emerge test, crop safety; details: post-emerge, 14 days after application, rating scale 0-100
How it was run: as §2

[22] = tested on: upland rice (Oryza sp., var. Tebonnet, RICE); assay: Post-emerge test, crop safety; details: post-emerge, 14 days after application, rating scale 0-100
How it was run: as §2

[23] = 63 g ai/ha, rating scale 0-100 (0 no damage, 100 complete death)
[24] = 250 g ai/ha, rating scale 0-100

## Cn1c(C(F)(F)F)cc(=O)n(-c2ccc(Cl)cc2/C=C/c2ccc3ccccc3c2)c1=O [14-59]
[1]; 63 g ai/ha
  phytotoxicity rating AMARE: 0
[1]; 250 g ai/ha
  phytotoxicity rating AMARE: 0
[2]; 63 g ai/ha
  phytotoxicity rating ECHCG: 0
[2]; 250 g ai/ha
  phytotoxicity rating ECHCG: 0
[3]; 63 g ai/ha
  phytotoxicity rating SETVI: 0
[3]; 250 g ai/ha
  phytotoxicity rating SETVI: 0
[4]; 63 g ai/ha
  phytotoxicity rating IPOHE: 0
[4]; 250 g ai/ha
  phytotoxicity rating IPOHE: 0
[5]; 63 g ai/ha
  phytotoxicity rating SORHA: 0
[5]; 250 g ai/ha
  phytotoxicity rating SORHA: 0
[6]; 63 g ai/ha
  phytotoxicity rating CHEAL: 40
[6]; 250 g ai/ha
  phytotoxicity rating CHEAL: 0
[7]; 63 g ai/ha
  phytotoxicity rating DIGSA: 0
[7]; 250 g ai/ha
  phytotoxicity rating DIGSA: 0
[8]; 63 g ai/ha
  phytotoxicity rating CASOB: 0
[8]; 250 g ai/ha
  phytotoxicity rating CASOB: 0
[9]; 63 g ai/ha
  phytotoxicity rating ABUTH: 0
[9]; 250 g ai/ha
  phytotoxicity rating ABUTH: 0
[10]; 63 g ai/ha
  phytotoxicity rating CORN: 0
[10]; 250 g ai/ha
  phytotoxicity rating CORN: 0
[11]; 63 g ai/ha
  phytotoxicity rating RICE: 0
[11]; 250 g ai/ha
  phytotoxicity rating RICE: 0
[12]; 63 g ai/ha
  Post-emerge Herbicidal Activity ECHCG (phytotoxicity rating): 0
[12]; 250 g ai/ha
  Post-emerge Herbicidal Activity ECHCG (phytotoxicity rating): 0
[13]; 63 g ai/ha
  Post-emerge Herbicidal Activity SETVI (phytotoxicity rating): 0
[13]; 250 g ai/ha
  Post-emerge Herbicidal Activity SETVI (phytotoxicity rating): 0
[14]; 63 g ai/ha
  Post-emerge Herbicidal Activity IPOHE (phytotoxicity rating): 30
[14]; 250 g ai/ha
  Post-emerge Herbicidal Activity IPOHE (phytotoxicity rating): 30
[15]; 63 g ai/ha
  Post-emerge Herbicidal Activity SORHA (phytotoxicity rating): 0
[15]; 250 g ai/ha
  Post-emerge Herbicidal Activity SORHA (phytotoxicity rating): 0
[16]; 63 g ai/ha
  Post-emerge Herbicidal Activity CHEAL (phytotoxicity rating): 10
[16]; 250 g ai/ha
  Post-emerge Herbicidal Activity CHEAL (phytotoxicity rating): 10
[17]; 63 g ai/ha
  Post-emerge Herbicidal Activity DIGSA (phytotoxicity rating): 0
[17]; 250 g ai/ha
  Post-emerge Herbicidal Activity DIGSA (phytotoxicity rating): 0
[18]; [23]
  Post-emerge Herbicidal Activity AMARE (phytotoxicity rating): 20
[18]; [24]
  Post-emerge Herbicidal Activity AMARE (phytotoxicity rating): 20
[19]; 63 g ai/ha
  Post-emerge Herbicidal Activity CASOB (phytotoxicity rating): 0
[19]; 250 g ai/ha
  Post-emerge Herbicidal Activity CASOB (phytotoxicity rating): 10
[20]; 63 g ai/ha
  Post-emerge Herbicidal Activity ABUTH (phytotoxicity rating): 50
[20]; 250 g ai/ha
  Post-emerge Herbicidal Activity ABUTH (phytotoxicity rating): 30
[21]; 63 g ai/ha
  Post-emerge Herbicidal Activity CORN (crop damage rating): 0
[21]; 250 g ai/ha
  Post-emerge Herbicidal Activity CORN (crop damage rating): 0
[22]; 63 g ai/ha
  Post-emerge Herbicidal Activity RICE (crop damage rating): 0
[22]; 250 g ai/ha
  Post-emerge Herbicidal Activity RICE (crop damage rating): 0

## CCOC(=O)C(Cl)Cc1cc(Cl)cc(F)c1-n1c(=O)cc(C(F)(F)F)n(C)c1=O (stereo not shown) [14-60]
[1]; 63 g ai/ha
  phytotoxicity rating AMARE: 100
[1]; 250 g ai/ha
  phytotoxicity rating AMARE: 100
[2]; 63 g ai/ha
  phytotoxicity rating ECHCG: 0
[2]; 250 g ai/ha
  phytotoxicity rating ECHCG: 20
[3]; 63 g ai/ha
  phytotoxicity rating SETVI: 10
[3]; 250 g ai/ha
  phytotoxicity rating SETVI: 60
[4]; 63 g ai/ha
  phytotoxicity rating IPOHE: 90
[4]; 250 g ai/ha
  phytotoxicity rating IPOHE: 100
[5]; 63 g ai/ha
  phytotoxicity rating SORHA: 0
[5]; 250 g ai/ha
  phytotoxicity rating SORHA: 10
[6]; 63 g ai/ha
  phytotoxicity rating CHEAL: 100
[6]; 250 g ai/ha
  phytotoxicity rating CHEAL: 100
[7]; 63 g ai/ha
  phytotoxicity rating DIGSA: 0
[7]; 250 g ai/ha
  phytotoxicity rating DIGSA: 30
[8]; 63 g ai/ha
  phytotoxicity rating CASOB: 0
[8]; 250 g ai/ha
  phytotoxicity rating CASOB: 0
[9]; 63 g ai/ha
  phytotoxicity rating ABUTH: 100
[9]; 250 g ai/ha
  phytotoxicity rating ABUTH: 100
[10]; 63 g ai/ha
  phytotoxicity rating CORN: 0
[10]; 250 g ai/ha
  phytotoxicity rating CORN: 0
[11]; 63 g ai/ha
  phytotoxicity rating RICE: 0
[11]; 250 g ai/ha
  phytotoxicity rating RICE: 20
[12]; 63 g ai/ha
  Post-emerge Herbicidal Activity ECHCG (phytotoxicity rating): 50
[12]; 250 g ai/ha
  Post-emerge Herbicidal Activity ECHCG (phytotoxicity rating): 75
[13]; 63 g ai/ha
  Post-emerge Herbicidal Activity SETVI (phytotoxicity rating): 20
[13]; 250 g ai/ha
  Post-emerge Herbicidal Activity SETVI (phytotoxicity rating): 30
[14]; 63 g ai/ha
  Post-emerge Herbicidal Activity IPOHE (phytotoxicity rating): 100
[14]; 250 g ai/ha
  Post-emerge Herbicidal Activity IPOHE (phytotoxicity rating): 100
[15]; 63 g ai/ha
  Post-emerge Herbicidal Activity SORHA (phytotoxicity rating): 20
[15]; 250 g ai/ha
  Post-emerge Herbicidal Activity SORHA (phytotoxicity rating): 50
[16]; 63 g ai/ha
  Post-emerge Herbicidal Activity CHEAL (phytotoxicity rating): 99
[16]; 250 g ai/ha
  Post-emerge Herbicidal Activity CHEAL (phytotoxicity rating): 100
[17]; 63 g ai/ha
  Post-emerge Herbicidal Activity DIGSA (phytotoxicity rating): 10
[17]; 250 g ai/ha
  Post-emerge Herbicidal Activity DIGSA (phytotoxicity rating): 60
[18]; [23]
  Post-emerge Herbicidal Activity AMARE (phytotoxicity rating): 70
[18]; [24]
  Post-emerge Herbicidal Activity AMARE (phytotoxicity rating): 100
[19]; 63 g ai/ha
  Post-emerge Herbicidal Activity CASOB (phytotoxicity rating): 40
[19]; 250 g ai/ha
  Post-emerge Herbicidal Activity CASOB (phytotoxicity rating): 70
[20]; 63 g ai/ha
  Post-emerge Herbicidal Activity ABUTH (phytotoxicity rating): 100
[20]; 250 g ai/ha
  Post-emerge Herbicidal Activity ABUTH (phytotoxicity rating): 100
[21]; 63 g ai/ha
  Post-emerge Herbicidal Activity CORN (crop damage rating): 0
[21]; 250 g ai/ha
  Post-emerge Herbicidal Activity CORN (crop damage rating): 60
[22]; 63 g ai/ha
  Post-emerge Herbicidal Activity RICE (crop damage rating): 10
[22]; 250 g ai/ha
  Post-emerge Herbicidal Activity RICE (crop damage rating): 20
